Data: patent publication US20200369629A1, “BENZAMIDE COMPOUNDS AND THEIR USE AS HERBICIDES” (BASF SE, priority 2017, published 2020)

Key:
Format in all cases: in vivo
[1] = system: ALOMY (Alopecurus myosuroiedes); assay: Greenhouse post-emergence test, test series 1, ALOMY; settings: application rate 62.5 g/ha, scale 0 to 100 (100 = complete destruction, 0 = no damage)
Excerpt: (§1) The seeds of the test plants were sown separately for each species. For the pre-emergence treatment, the active ingredients, which had been suspended or emulsified in water, were applied directly after sowing by means of finely distributing nozzles. The containers were irrigated gently to promote germination and growth and subsequently covered with transparent plastic hoods until the plants had rooted. This cover caused uniform germination of the test plants, unless this had been impaired by the active ingredients. For the post-emergence treatment, the test plants were first grown to a height of 3 to 15 cm, depending on the plant habit, and only then treated with the active ingredients which had been suspended or emulsified in water. For this purpose, the test plants were either sown directly and grown in the same containers, or they were first grown separately as seedlings and transplanted into the test containers a few days prior to treatment. Depending on the species, the plants were kept at 10-25° C. or 20-25° C., respectively. The test period extended over 2 to 4 weeks. During this time, the plants were tended, and their response to the individual treatments was evaluated. Evaluation was carried out using a scale from 0 to 100. 100 means no emergence of the plants, or complete destruction of at least the aerial moieties, and 0 means no damage, or normal course of growth. A good herbicidal activity is given at values of at least 70 and a very good herbicidal activity is given at values of at least 85. Test Series 1: At an application rate of 62.5 g/ha the following compounds were tested in post-emergence tests against: ALOMY (Alopecurus myosuroiedes)

[2] = system: AVEFA (Avena fatua); assay: Greenhouse post-emergence test, test series 1, AVEFA; settings: application rate 62.5 g/ha, scale 0 to 100 (100 = complete destruction, 0 = no damage)
Excerpt: as §1, with “AVEFA (Avena fatua)” for “ALOMY (Alopecurus myosuroiedes)”

[3] = system: CHEAL (Chenopodium album); assay: Greenhouse post-emergence test, test series 1, CHEAL; settings: application rate 62.5 g/ha, scale 0 to 100 (100 = complete destruction, 0 = no damage)
Excerpt: as §1, with “CHEAL (Chenopodium album)” for “ALOMY (Alopecurus myosuroiedes)”

[4] = system: ALOMY (Alopecurus myosuroiedes); assay: Greenhouse pre-emergence test, test series 2, ALOMY; settings: application rate 125 g/ha, scale 0 to 100 (100 = no emergence, 0 = no damage)
Excerpt: as §1, with “Series 2:” for “Series 1:”, “of 125” for “of 62.5”, “in pre-emergence” for “in post-emergence”, “tests against” for “tests against:”

Cc1c(NC(=O)N(C)CC(F)(F)F)c(Cl)cc(F)c1C(=O)Nc1nnnn1C [Example 12]
> 85%: pest or weed control at 62.5 g/ha [1] | pest or weed control at 62.5 g/ha [2] | pest or weed control at 62.5 g/ha [3] | pest or weed control at 125 g/ha [4]

CCN(CC(F)(F)F)C(=O)Nc1c(Cl)cc(F)c(C(=O)Nc2nnnn2C)c1Cl [Example 8]
> 85%: pest or weed control at 62.5 g/ha [2] | pest or weed control at 62.5 g/ha [3] | pest or weed control at 125 g/ha [4]

Cc1c(NC(=O)N(CC(F)(F)F)C(C)C)c(Cl)cc(F)c1C(=O)Nc1nnnn1C [Example 13]
> 85%: pest or weed control at 62.5 g/ha [2] | pest or weed control at 62.5 g/ha [3] | pest or weed control at 125 g/ha [4]

CN(CC(F)(F)F)C(=O)Nc1c(C(F)(F)F)cc(F)c(C(=O)Nc2nnnn2C)c1Cl [Example 10]
> 85%: pest or weed control at 62.5 g/ha [1] | pest or weed control at 62.5 g/ha [2] | pest or weed control at 62.5 g/ha [3] | pest or weed control at 125 g/ha [4]

CCN(CC(F)(F)F)C(=O)Nc1c(Cl)cc(F)c(C(=O)Nc2nnnn2C)c1C [Example 18]
> 85%: pest or weed control at 62.5 g/ha [1] | pest or weed control at 62.5 g/ha [2] | pest or weed control at 62.5 g/ha [3] | pest or weed control at 125 g/ha [4]

Cc1c(NC(=O)N(CC(F)(F)F)CC(F)(F)F)c(Cl)cc(F)c1C(=O)Nc1nnnn1C [Example 19]
> 85%: pest or weed control at 62.5 g/ha [1] | pest or weed control at 62.5 g/ha [2] | pest or weed control at 62.5 g/ha [3] | pest or weed control at 125 g/ha [4]

Cc1c(NC(=O)N(CC(F)(F)F)CC(F)(F)F)c(Br)cc(F)c1C(=O)Nc1nnnn1C [Example 3]
> 85%: pest or weed control at 62.5 g/ha [1] | pest or weed control at 62.5 g/ha [2] | pest or weed control at 62.5 g/ha [3] | pest or weed control at 125 g/ha [4]

CC(C)N(CC(F)(F)F)C(=O)Nc1c(C(F)(F)F)cc(F)c(C(=O)Nc2nnnn2C)c1Cl [Example 14]
> 85%: pest or weed control at 62.5 g/ha [1] | pest or weed control at 62.5 g/ha [2] | pest or weed control at 62.5 g/ha [3] | pest or weed control at 125 g/ha [4]

Cc1c(NC(=O)N(CC(F)(F)F)C2CC2)c(Br)cc(F)c1C(=O)Nc1nnnn1C [Example 6]
> 85%: pest or weed control at 62.5 g/ha [1] | pest or weed control at 62.5 g/ha [2] | pest or weed control at 62.5 g/ha [3] | pest or weed control at 125 g/ha [4]

CN(CC(F)(F)F)C(=O)Nc1c(Cl)cc(F)c(C(=O)Nc2nnnn2C)c1Cl [Example 9, 2,4-dichloro-6-fluoro-N-(1-methyltetrazol-5-yl)-3-[[methyl(2,2,2-trifluoroethyl)carbamoyl]amino]benzamide]
> 85%: pest or weed control at 62.5 g/ha [1] | pest or weed control at 62.5 g/ha [2] | pest or weed control at 62.5 g/ha [3] | pest or weed control at 125 g/ha [4]

Cc1c(NC(=O)N(CC(F)(F)F)C2CC2)c(Cl)cc(F)c1C(=O)Nc1nnnn1C [Example 21]
> 85%: pest or weed control at 62.5 g/ha [1] | pest or weed control at 62.5 g/ha [2] | pest or weed control at 62.5 g/ha [3] | pest or weed control at 125 g/ha [4]

Cn1nnnc1NC(=O)c1c(F)cc(Cl)c(NC(=O)N(CC(F)(F)F)C2CC2)c1Cl [Example 7]
> 85%: pest or weed control at 62.5 g/ha [1] | pest or weed control at 62.5 g/ha [2] | pest or weed control at 62.5 g/ha [3] | pest or weed control at 125 g/ha [4]

CC(C)N(CC(F)(F)F)C(=O)Nc1c(Cl)cc(F)c(C(=O)Nc2nnnn2C)c1Cl [Example 20]
> 85%: pest or weed control at 62.5 g/ha [1] | pest or weed control at 62.5 g/ha [2] | pest or weed control at 62.5 g/ha [3] | pest or weed control at 125 g/ha [4]

Cc1c(NC(=O)N(C)CC(F)(F)F)c(Br)cc(F)c1C(=O)Nc1nnnn1C [Example 1, 4-bromo-6-fluoro-2-methyl-N-(1-methyltetrazol-5-yl)-3-[[methyl(2,2,2-trifluoroethyl)carbamoyl]amino]benzamide]
> 85%: pest or weed control at 62.5 g/ha [1] | pest or weed control at 62.5 g/ha [2] | pest or weed control at 62.5 g/ha [3] | pest or weed control at 125 g/ha [4]

Cn1nnnc1NC(=O)c1c(F)cc(C(F)(F)F)c(NC(=O)N(CC(F)(F)F)CC(F)(F)F)c1Cl [Example 22]
> 85%: pest or weed control at 62.5 g/ha [1] | pest or weed control at 62.5 g/ha [2] | pest or weed control at 62.5 g/ha [3] | pest or weed control at 125 g/ha [4]

CCN(CC(F)(F)F)C(=O)Nc1c(Br)cc(F)c(C(=O)Nc2nnnn2C)c1C [Example 2, 4-bromo-6-fluoro-2-methyl-N-(1-methyltetrazol-5-yl)-3-[[ethyl(2,2,2-trifluoroethyl)carbamoyl]amino]benzamide]
> 85%: pest or weed control at 62.5 g/ha [1] | pest or weed control at 62.5 g/ha [2] | pest or weed control at 62.5 g/ha [3] | pest or weed control at 125 g/ha [4]
